Laboratory results as given in PubChem BioAssay AID179 (DTP/NCI, 2004).
Several values for one entry are separate records, joined by “and”; a condition that tells them apart may be missing. Equal entries are not always repeated. Activity calls are given as the source filed them.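 The calls were made as follows: active = compounds giving half or more protection of infected cells from virus-caused growth loss, again on retest; inactive = the rest.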

System: CEM cells HIV-1 protection, formazan growth assay
Assay: NCI AIDS Antiviral Assay
Settings: for IC50: measured here: growth of uninfected CEM cells
Summary of the method: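 Human CEM cells, uninfected and HIV-1-infected, exposed to five drug concentrations; growth measured by soluble formazan assay and scored as percent protection from infection, with protecting compounds retested.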

Compound	EC50	IC50	outcome
C[Si](C)(C)OC=C1CCCCC1	> 200 µM	> 200 µM	–
CCOC(=O)CC(C)P(c1ccccc1)C(C)CC(=O)OCC (configuration not stated)	> 741 µM	> 741 µM	–
COc1ccc2c(c1)C(=O)CC(C(=O)O)C2 (configuration not stated)	> 1120 µM	> 1120 µM	–
CCO[C@@]12CCC3CC4CC[C@@](OCC)(O1)C4C32 (some centres not stated)	> 200 µM	> 200 µM	–
COc1ccc(N=Nc2c(N)nn3cc4c(nc23)-c2ccccc2CC4)cc1	> 200 µM	2.57 µM	–
CCCC(O)C(=O)C(CCC)N(CC)CC (configuration not stated)	> 1100 µM	> 1100 µM	–
CCc1ccccc1N=NC(=O)NNc1ccccc1CC	> 200 µM	70.8 µM	–
N#CC(C#N)=C(N)/C(C#N)=C/c1ccc(O)c(O)c1	> 200 µM	61.7 µM	–
CSC1=N/C(=C\c2ccc(C)cc2)C(=O)N1	> 200 µM	178 µM	–
CC1(C(=O)O)CCCC2(C)[C@@H]3CCC4CC3(CC[C@H]12)C[C@@]4(C)O (some centres not stated)	> 200 µM	> 200 µM	–
COCC(=O)C1CC[C@@H]2[C@H](CC[C@]3(C)[C@@H](OC(C)=O)CC[C@@H]23)[C@H]1C(=O)OC (some centres not stated)	> 50.1 µM	> 50.1 µM	–
CSc1nc2c(c(N(C)C)n1)C(O)n1c(nc3ccccc31)S2 (configuration not stated)	> 200 µM	> 200 µM	–
Cc1nc2c(=O)n(-c3ccccc3)c(=O)n(-c3ccccc3)c2o1	> 200 µM	> 200 µM	–
C=CCNC(=S)/N=C/c1c(O)[nH]c(=O)[nH]c1=O	–	–	inactive
Cc1cc(=O)oc2c1c(C)nn2-c1cccc(Cl)c1	> 95.5 µM	89.1 µM	–
Cc1cn(CC2COC(CO)O2)c(=O)[nH]c1=O (configuration not stated)	> 1020 µM	> 1020 µM	–
CC(=O)CC(=O)N1CCSC1=S	126 µM	> 200 µM	–
O=C1C2C3SC(c4c3ccc3ccccc43)C2C(=O)N1c1ccccc1 (configuration not stated)	> 2.95 µM	> 2.95 µM	–
CC(C)CCCC(C)[C@H]1CC[C@H]2[C@@H]3CC[C@H]4C[C@@H](CCC=C(c5cc(Cl)c(OCc6cccc(C(=O)O)c6)c(C(=O)O)c5)c5cc(Cl)c(OCc6cccc(C(=O)O)c6)c(C(=O)O)c5)CC[C@]4(C)[C@H]3CC[C@]12C (some centres not stated)	5.5 µM and 1.78 µM	> 200 µM	–
O=C1OCCCCOC(=O)c2ccccc2SSc2ccccc21	> 200 µM	> 200 µM	–
COc1ccc2c(c1)C(=O)C1CCC(=O)N1C2c1ccc2c(c1)OCO2 (configuration not stated)	> 200 µM	3.72 µM	–
Cc1ccc(C)c(N=C2NC(=O)C(CC(=O)Nc3ccc(Cl)cc3Cl)S2)c1 (configuration not stated)	> 44.7 µM	19.5 µM	–

Compound	EC50	IC50	outcome
Cc1cccc(NC(=O)/C=C/c2ccc(N(CCC#N)CCC#N)cc2C)c1	> 676 µM	> 676 µM	–
O=C(Nc1ccc(C2=NC3CCCCC3N2)cc1)c1ccc(C(=O)Nc2ccc(C3=NC4CCCCC4N3)cc2)cc1 (configuration not stated)	> 200 µM	9.33 µM	–
CN(/N=C/c1ccc(Cl)cc1)C1=NCCCCN1	> 200 µM	87.1 µM	–
C[C@]12CCC(=O)C(O)=C1CC[C@@H]1C2CC[C@]2(C)NC(=O)CCC12 (some centres not stated)	> 40.7 µM	> 40.7 µM	–
COc1ccc2c(c1OC)OCC(CN(C)C)C2=O (configuration not stated)	–	–	inactive
COc1ccccc1/C=C/C(=O)O	> 525 µM	> 525 µM	–
Cc1ccc(NCCCN2CCN(CCCNc3ccc(C)c4sc5ccccc5c(=O)c34)CC2)c2c(=O)c3ccccc3sc12	> 100 µM	> 100 µM	–
NC(=S)N/C=C(/c1ccc(Cl)cc1Cl)S(=O)(=O)Cc1ccc(Cl)cc1Cl	> 100 µM	> 100 µM	–
COc1cc2c(c(OC)c1OC)C(=O)[C@@H]1[C@H]2N1C(=O)NCCCl	> 200 µM	45.7 µM	–
O=C(O)C[S][Bi]([S]CC(=O)O)[S]CC(=O)O	–	–	inactive
O=C1C(c2ccccc2)=C(c2ccccc2)C(c2ccc(Sc3ccc(C4=C(c5ccccc5)C(=O)C(c5ccccc5)=C4c4ccccc4)cc3)cc2)=C1c1ccccc1	> 1.82 µM	> 1.82 µM	–
Cc1cc(C23OC4COC(C)(C)OC4C2OC(C)(C)O3)nc2ccccc12 (configuration not stated)	> 200 µM	102 µM	–
Cc1cc(C)[n+]([O-])c(C)c1	> 1820 µM	977 µM	–
COc1cc2c(c3c1c(=O)c1ccccc1n3C)C=CC1(CCCC1)O2	> 200 µM	11 µM	–
CC1CC2OC(=O)C3CCCC(=C23)[C@@]12C[C@@H](c1ccoc1)OC2=O (some centres not stated)	> 550 µM	269 µM	–
COC(=O)[C@]1(C)CCC[C@]2(C)C3=CC(=O)[C@@]4(C(C)C)O[C@H]4[C@]3(O)CC[C@@H]12	> 72.4 µM	> 72.4 µM	–
Nc1cccc2nnccc12	> 200 µM	> 200 µM	–
COc1cc(-c2cc(CCC(=O)Nc3ccccc3[N+](=O)[O-])n(-c3ccc([N+](=O)[O-])cc3[N+](=O)[O-])n2)ccc1O	> 47.9 µM	> 47.9 µM	–
c1ccc2c(c1)nc1n2CSC1	–	–	inactive
COC(=O)C1=CC2CC1C(S(=O)(=O)c1ccccc1)C2S(=O)(=O)c1ccccc1 (configuration not stated)	> 100 µM	4.57 µM	–
Cc1ccc(OS(=O)(=O)c2ccccc2[N+](=O)[O-])cc1	–	–	active
CCC1=C(CC)C1(C#N)[N+](=O)[O-]	> 251 µM	> 251 µM	–

Compound	EC50	IC50	outcome
Clc1ccc(SSc2ccc(Cl)cn2)nc1	> 200 µM	20.4 µM	–
COc1ccc(C(=O)C(C(=O)CCC(=O)Nc2cccc(C(F)(F)F)c2)c2ccccc2)cc1 (configuration not stated)	> 11.2 µM	> 11.2 µM	–
COc1ccc(N=CN(C)C)c(C)c1	> 200 µM	3.98 µM	–
COCCCNC(=O)CC(=O)NCCCOC	> 1000 µM	> 1000 µM	–
O=C(O)[C@@H]1C[C@@H](O)CN1C(=O)OCc1ccccc1	–	–	inactive
CNC(=S)N(C)C(=S)Nn1c(=O)c(C)nn(C)c1=S	18.6 µM	> 200 µM	–
CC(=O)OCC1OC(OCCCCCCO)C(OC(C)=O)C(OC(C)=O)C1OC(C)=O (configuration not stated)	> 200 µM	> 200 µM	–
C[C@H](CCC(=O)O)[C@H]1CC[C@H]2[C@@H]3C(=O)C[C@@H]4C[C@H](O)CC[C@]4(C)[C@H]3C[C@H](O)[C@]12C	> 200 µM	> 200 µM	–
CCC1NCC(=O)c2c1[nH]c1ccccc21 (configuration not stated)	–	–	inactive
CN1CCc2cc(O)c3cc2C1Cc1ccc(cc1)Oc1cc(ccc1O)CC1c2c(cc4c(c2O3)OCO4)CCN1C (configuration not stated)	–	–	inactive
CCOC(=O)NC(Nc1ncccn1)(C(F)(F)F)C(F)(F)F	> 191 µM	186 µM	–
CN(C)CCC(=O)N1C/C(=C/c2ccccc2)C(=O)/C(=C\c2ccccc2)C1	> 17.4 µM	0.339 µM	–
COc1cccc(C2C(C(=O)O)=C(CO)Oc3cc4c(cc32)OCO4)c1OC (configuration not stated)	–	–	inactive
Oc1[nH]c2ccccc2c1N=NC(=S)Nc1cccc(Cl)c1	> 200 µM	4.57 µM	–
CCOC(=O)NC(OC)(C(F)(F)F)C(F)(F)F	> 200 µM	> 200 µM	–
CCc1nc2cc(F)ccc2[nH]c1=O	> 200 µM	132 µM	–
c1ccc(-c2cnnc3c4ccccc4nn23)cc1	> 200 µM	> 200 µM	–
CC(C)=CCC[C@@H](C)C1=C(O)C(Nc2ccccc2F)=C(C)C(=O)C1=O	> 200 µM	15.8 µM	–
NS(=O)(=O)c1cc[c]([Sb](=[O])([OH])[OH])cc1	> 200 µM	> 200 µM	–
CCCCCCCCCCCCCCCCOP(=O)([O-])OCC[N+](C)(C)C	> 309 µM	2.45 µM	–
CC1(C)OCC(C2OC3OC(C)(C)OC3C2OC(=S)SSC(=S)OC2C(C3COC(C)(C)O3)OC3OC(C)(C)OC32)O1 (configuration not stated)	> 200 µM	16.6 µM	–
O=c1[nH]ncc2c1Sc1cn[nH]c(=O)c1S2	> 10.7 µM	> 10.7 µM	–

Compound	EC50	IC50	outcome
O=C(N/N=C(\c1nc2ccc(Cl)cc2[nH]c1=O)C(O)c1ccccc1Cl)c1ccncc1 (configuration not stated)	> 537 µM	> 537 µM	–
COc1cc2c(cc1O)Cc1c-2[n+](C)cc2cc(OC)c(OC)cc12	> 347 µM	1.62 µM	–
COc1ccc(/C=N\N2C(=O)Cc3ccccc32)cc1	> 37.2 µM	> 37.2 µM	–
CN(C)c1ccc2c(c1)-c1cc(N(C)C)ccc1C2=CC=C(C#N)C#N	> 4.27 µM	> 4.27 µM	–
CC(=O)c1cccc(NC(=O)Nc2cccc(C)n2)c1	> 56.2 µM	6.92 µM	–
Clc1ccc(C(c2ccccc2Cl)C(Cl)Cl)cc1 (configuration not stated)	> 200 µM	61.7 µM	–
COc1ccc(OC)c2c3c([nH]c12)C(=O)Nc1nc(N)nc(N)c1C3	> 20 µM	1 µM	–
CCCCCCCCCCCCCCCCCC(=O)OCC1OC(OC)C(NC(=O)N(CCCl)N=O)C(O)C1O (configuration not stated)	> 8.71 µM	> 8.71 µM	–
CNCc1c2c(O)c3c(O)c(C)c4c(c3c1O)C(=O)C(C)(O/C=C/C(OC)C(C)C(OC(C)=O)C(C)C(O)C(C)C(O)C(C)/C=C/C=C(/C)C(=O)N2)O4 (configuration not stated)	> 200 µM	16.6 µM	–
COc1ccc(NC(=O)CC(=O)N2N=C(c3ccccc3)C(N=Nc3ccc(S(=O)(=O)CCOS(=O)(=O)O)cc3)C2=O)cc1 (configuration not stated)	> 200 µM	> 200 µM	–
COc1ccc(C(c2ccc(C(C)C)cc(=O)c2O)c2ccc3cccnc3c2O)cc1 (configuration not stated)	–	–	inactive
O=C(/C=C\c1cccc(C(F)(F)F)c1)c1ccccc1	–	–	inactive
O=c1[nH]nc(Cc2ccccc2)n1/N=C\c1ccccc1	> 200 µM	> 200 µM	–
CC[C@](O)(C(=O)O)c1cc2n(c(=O)c1CO)Cc1cc3ccccc3nc1-2	> 0.1 µM	0.012 µM	–
O=C1Nc2ccccc2C1(O)C/C(=N/O)c1ccc2ccccc2c1 (configuration not stated)	> 107 µM	> 107 µM	–
COC(=O)c1cnc2nc(N3CCOCC3)[nH]n2c1=O	> 12.9 µM	> 12.9 µM	–
CCOC(=O)C1(C#N)C(C#N)(C#N)C1(C#N)C#N	> 200 µM	> 200 µM	–
CCOC(=O)/C(C[C@H]1OC(C)(C)O[C@@H]1[C@H]1COC(C)(C)O1)=N/O	> 200 µM	> 200 µM	–
Cc1ccc2c(ccc(/C=C\c3cc(C)c4cccnc4c3O)[n+]2C)c1	> 39.8 µM	0.776 µM	–
CCOC(=O)C1C(c2ccccc2)=C(c2ccccc2)C(c2ccccc2)=C1c1ccccc1	–	–	inactive
O=C(O)C1C2OC3C(OC(=O)C31)C2Br (configuration not stated)	> 200 µM	> 200 µM	–
